Assay results as given in ChEMBL document CHEMBL3992560, “Synthesis and pharmacological evaluation of pyrazolo[1,5-a]pyrimidin-7(4H)-one derivatives as potential GABAA-R ligands” (Bioorg Med Chem, 2017).
Activity calls are given as the source filed them. The rule behind the calls is not given here.

What was measured:
[1] = Displacement of [3H]Ro15-1788 from GABA-A receptor benzodiazepine site in bovine brain cerebral cortex membranes; parameters: species or system Bos taurus, Membrane
Mus musculus [2] = assay: Anxiolytic-like activity in CD-1 mouse assessed as time spent in light area at 1 mg/kg, po administered 30 mins prior to test by light/dark exploration test relative to control; assay type: functional
Mus musculus [3] = assay: Anxiolytic-like activity in CD-1 mouse assessed as number of transfer from one compartment to other at 1 mg/kg, po administered 30 mins prior to test by light/dark exploration test; assay type: functional
Rattus norvegicus [4] = assay: Anxiolytic-like activity in Sprague-Dawley rat assessed as total number of arm entries at 1 mg/kg, po administered 30 mins prior to test by elevated […] maze test; assay type: functional
Rattus norvegicus [5] = assay: Anxiolytic-like activity in Sprague-Dawley rat assessed as time spent in open arms at 1 mg/kg, po administered 30 mins prior to test by elevated […] maze test relative to control; assay type: functional
Bos taurus = organism: Bos taurus; assay: Displacement of [3H]Ro15-1788 from GABA-A receptor benzodiazepine site in bovine brain cerebral cortex membranes at 10 uM relative to control; conditions: Membrane
Mus musculus [6] = assay: Anxiolytic-like activity in CD-1 mouse assessed as increase in time spent in light area at 1 to 30 mg/kg, po administered 30 mins prior to test by light/dark exploration test; assay type: functional, organism-based
Mus musculus [7] = assay: Anxiolytic-like activity in CD-1 mouse assessed as time spent in light area at 10 mg/kg, po administered 30 mins prior to test by light/dark exploration test relative to control; assay type: functional
Mus musculus [8] = assay: Anxiolytic-like activity in CD-1 mouse assessed as time spent in light area at 3 mg/kg, po administered 30 mins prior to test by light/dark exploration test relative to control; assay type: functional
Mus musculus [9] = assay: Anxiolytic-like activity in CD-1 mouse assessed as time spent in light area at 30 mg/kg, po administered 30 mins prior to test by light/dark exploration test relative to control; assay type: functional
Mus musculus [10] = assay: Anxiolytic-like activity in CD-1 mouse assessed as time spent in light area at 10 mg/kg, po administered 30 mins prior to test followed by flumazenil injection by light/dark exploration test relative to control; assay type: functional
Mus musculus [11] = assay: Anxiolytic-like activity in CD-1 mouse assessed as number of transfer from one compartment to other at 10 mg/kg, po administered 30 mins prior to test by light/dark exploration test; assay type: functional
Mus musculus [12] = assay: Anxiolytic-like activity in CD-1 mouse assessed as number of transfer from one compartment to other at 3 mg/kg, po administered 30 mins prior to test by light/dark exploration test; assay type: functional
Mus musculus [13] = assay: Anxiolytic-like activity in CD-1 mouse assessed as number of transfer from one compartment to other at 30 mg/kg, po administered 30 mins prior to test by light/dark exploration test; assay type: functional
Mus musculus [14] = assay: Anxiolytic-like activity in CD-1 mouse assessed as number of transfer from one compartment to other at 30 mg/kg, po administered 30 mins prior to test followed by flumazenil injection by light/dark exploration test; assay type: functional
Rattus norvegicus [15] = assay: Anxiolytic-like activity in Sprague-Dawley rat assessed as total number of arm entries at 10 mg/kg, po administered 30 mins prior to test by elevated […] maze test; assay type: functional
Rattus norvegicus [16] = assay: Anxiolytic-like activity in Sprague-Dawley rat assessed as time spent in open arms at 10 mg/kg, po administered 30 mins prior to test by elevated […] maze test relative to control; assay type: functional
[17] = target: T1, GABA-A receptor; alpha-1/beta-2/gamma-2 (Homo sapiens, UniProt P14867+P18507+P47870); assay: Displacement of [3H]Ro15-1788 from GABA-Aalpha1beta2gamma2 receptor (unknown origin) expressed in cell membranes after 1 hr
T1 sequence (P14867 whole entry): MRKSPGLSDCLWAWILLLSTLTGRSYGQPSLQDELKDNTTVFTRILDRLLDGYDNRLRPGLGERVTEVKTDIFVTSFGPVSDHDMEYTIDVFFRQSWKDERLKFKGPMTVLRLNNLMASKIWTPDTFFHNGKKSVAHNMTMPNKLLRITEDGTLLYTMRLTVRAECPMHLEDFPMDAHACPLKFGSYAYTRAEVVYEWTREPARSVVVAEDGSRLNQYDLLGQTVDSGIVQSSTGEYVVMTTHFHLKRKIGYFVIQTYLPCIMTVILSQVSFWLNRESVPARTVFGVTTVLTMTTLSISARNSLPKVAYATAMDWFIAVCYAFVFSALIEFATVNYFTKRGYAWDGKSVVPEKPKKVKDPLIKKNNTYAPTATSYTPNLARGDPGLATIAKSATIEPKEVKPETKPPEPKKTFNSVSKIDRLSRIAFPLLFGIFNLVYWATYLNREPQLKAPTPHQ
T1 sequence (P47870 whole entry): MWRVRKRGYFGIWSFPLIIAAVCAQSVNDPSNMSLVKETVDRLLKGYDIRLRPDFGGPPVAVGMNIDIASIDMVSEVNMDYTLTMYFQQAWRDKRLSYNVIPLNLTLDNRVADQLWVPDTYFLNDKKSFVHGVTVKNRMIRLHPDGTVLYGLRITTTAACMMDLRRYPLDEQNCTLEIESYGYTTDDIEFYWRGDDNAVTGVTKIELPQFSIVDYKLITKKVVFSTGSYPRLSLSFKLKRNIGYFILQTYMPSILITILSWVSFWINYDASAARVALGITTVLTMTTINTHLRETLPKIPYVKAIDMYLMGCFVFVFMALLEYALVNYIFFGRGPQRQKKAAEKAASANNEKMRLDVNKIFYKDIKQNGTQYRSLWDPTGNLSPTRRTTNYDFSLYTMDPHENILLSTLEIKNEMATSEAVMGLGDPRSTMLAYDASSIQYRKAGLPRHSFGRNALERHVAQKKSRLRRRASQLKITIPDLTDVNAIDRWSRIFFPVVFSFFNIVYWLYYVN
T1 sequence (P18507 whole entry): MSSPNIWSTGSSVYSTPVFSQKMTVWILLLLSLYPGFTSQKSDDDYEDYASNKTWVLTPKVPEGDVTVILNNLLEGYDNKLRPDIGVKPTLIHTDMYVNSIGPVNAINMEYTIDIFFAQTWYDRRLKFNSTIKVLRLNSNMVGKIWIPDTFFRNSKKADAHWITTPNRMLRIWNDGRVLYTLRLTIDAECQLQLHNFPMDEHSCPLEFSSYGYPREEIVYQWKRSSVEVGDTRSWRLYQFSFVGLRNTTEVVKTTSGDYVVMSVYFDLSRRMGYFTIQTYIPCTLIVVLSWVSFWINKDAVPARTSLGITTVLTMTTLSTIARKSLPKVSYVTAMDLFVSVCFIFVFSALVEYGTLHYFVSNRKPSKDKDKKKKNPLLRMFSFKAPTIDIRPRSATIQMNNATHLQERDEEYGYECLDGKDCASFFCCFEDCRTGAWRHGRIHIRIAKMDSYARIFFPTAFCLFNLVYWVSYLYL

[18] = target: GABA A receptor alpha-2/beta-2/gamma-2 (Homo sapiens) (UniProt P47870+P18507+P47869); assay: Displacement of [3H]Ro15-1788 from GABA-Aalpha2beta2gamma2 receptor (unknown origin) expressed in cell membranes after 1 hr relative to control
[19] = target: GABA-A receptor; alpha-5/beta-3/gamma-2 (Homo sapiens) (UniProt P18507+P28472+P31644); assay: Displacement of [3H]Ro15-1788 from GABA-Aalpha5beta3gamma2 receptor (unknown origin) expressed in cell membranes after 1 hr relative to control

SMILES	Ki ([1]; read-out: Ki)	inhibition (Bos taurus)	further results
CN1C(=O)CN=C(c2ccccc2)c2cc(Cl)ccc21 [DIAZEPAM]	10 nM	–	Activity (Mus musculus [2]): 171.6%; Activity (Mus musculus [3]): 8.3; Activity (Rattus norvegicus [4]): 10.5; Activity (Rattus norvegicus [5]): 34.9%
O=c1c(Cc2ccccc2)c[nH]c2c(-c3ccccc3)cnn12	132 nM	> 80%	–
O=c1c(Cc2ccccc2)c[nH]c2c(-c3ccsc3)cnn12	–	< 80%	Ki [1]: Not Active
O=c1c(-c2ccccc2)c[nH]c2c(-c3ccc4ccccc4c3)cnn12	–	< 80%	Ki [1]: Not Active
O=c1c(-c2ccccc2)c[nH]c2c(-c3ccccc3)cnn12	368 nM	> 80%	–
O=c1c(Cc2ccccc2)c[nH]c2c(-c3ccc4ccccc4c3)cnn12	73.3 nM	> 80%	–
Cc1cccc(-c2cnn3c(=O)c(Cc4ccccc4)c[nH]c23)c1	18 nM	> 80%	–
O=c1c(-c2ccccc2)c[nH]c2c(-c3ccccn3)cnn12	211 nM	> 80%	Activity (Mus musculus [6]): inactive
O=c1c(Cc2ccccc2)c[nH]c2c(-c3ccccn3)cnn12	29.8 nM	> 80%	Activity (Mus musculus [7]): 165.4%; Activity (Mus musculus [2]): 113.9%; Activity (Mus musculus [8]): 145.2%; Activity (Mus musculus [9]): 164.4%; Activity (Mus musculus [10]): 120.08%; Activity (Mus musculus [11]): 23.9; Activity (Mus musculus [3]): 15; Activity (Mus musculus [12]): 21.3; Activity (Mus musculus [13]): 28.9; Activity (Mus musculus [14]): 12.8; Activity (Rattus norvegicus [15]): 10.5; Activity (Rattus norvegicus [16]): 29.6%; Ki [17]: 183 nM; inhibition [18]: 14%; inhibition [19]: 31%
O=c1c(Cc2ccccc2)c[nH]c2c(-c3cccc4ccccc34)cnn12	112 nM	> 80%	–
O=c1c(-c2ccccc2)c[nH]c2c(-c3ccsc3)cnn12	72.2 nM	> 80%	–
O=c1c(-c2ccccc2)c[nH]c2c(-c3cccc(Br)c3)cnn12	39.3 nM	> 80%	–
O=c1c(Cc2ccccc2)c[nH]c2c(-c3cccnc3)cnn12	73.3 nM	> 80%	–
O=c1c(Cc2ccccc2)c[nH]c2c(-c3cccc(C(F)(F)F)c3)cnn12	22.3 nM	> 80%	–
COc1cccc(-c2cnn3c(=O)c(Cc4ccccc4)c[nH]c23)c1	49.6 nM	> 80%	–
O=c1c(-c2ccccc2)c[nH]c2c(-c3cccc(C(F)(F)F)c3)cnn12	118 nM	> 80%	–
O=c1c(-c2ccccc2)c[nH]c2c(-c3cccs3)cnn12	215 nM	> 80%	–
Cc1cccc(-c2cnn3c(=O)c(-c4ccccc4)c[nH]c23)c1	87 nM	> 80%	–
O=c1c(Cc2ccccc2)c[nH]c2c(-c3cccs3)cnn12	502 nM	> 80%	–
O=c1c(Cc2ccccc2)c[nH]c2c(Cc3ccccc3)cnn12	–	< 80%	Ki [1]: Not Active
O=c1c(Cc2ccccc2)c[nH]c2c(-c3cccc(Br)c3)cnn12	29.9 nM	> 80%	–
O=c1c(-c2ccccc2)c[nH]c2c(-c3cccc4ccccc34)cnn12	375 nM	> 80%	–
O=c1c(-c2ccccc2)c[nH]c2c(-c3cccnc3)cnn12	58.4 nM	> 80%	–
COc1cccc(-c2cnn3c(=O)c(-c4ccccc4)c[nH]c23)c1	192 nM	> 80%	–
O=c1c(Cc2ccccc2)c[nH]c2c(-c3ccc(F)cc3)cnn12	34.6 nM	> 80%	–
O=c1c(-c2ccccc2)c[nH]c2c(-c3ccc(F)cc3)cnn12	132 nM	> 80%	–
O=c1c(-c2ccccc2)c[nH]c2c(Cc3ccccc3)cnn12	–	< 80%	Ki [1]: Not Active
